Reference: PubChem BioAssay (NCI)
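Assay format: 96-well plates, 48-hour exposure. The concentration for 50% growth inhibition is given as GI50. The concentration for full growth arrest is given as TGI.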

Assays:
Assay in all cases: inhibition of tumour cell growth, NCI panel, 48 h
786-0 renal = tested on: 786-0 renal
A498 renal = tested on: A498 renal
A549 NSCLC = tested on: A549 NSCLC
ACHN renal = tested on: ACHN renal
BT-549 breast = tested on: BT-549 breast
CAKI-1 renal = tested on: CAKI-1 renal
CCRF-CEM leukemia = tested on: CCRF-CEM leukemia
COLO 205 colon = tested on: COLO 205 colon
DU-145 prostate = tested on: DU-145 prostate
EKVX NSCLC = tested on: EKVX NSCLC
HCC-2998 colon = tested on: HCC-2998 colon
HCT-116 colon = tested on: HCT-116 colon
HCT-15 colon = tested on: HCT-15 colon
HL-60(TB) leukemia = tested on: HL-60(TB) leukemia
HOP-62 NSCLC = tested on: HOP-62 NSCLC
HOP-92 NSCLC = tested on: HOP-92 NSCLC
HS 578T breast = tested on: HS 578T breast
HT29 colon = tested on: HT29 colon
IGROV1 ovarian = tested on: IGROV1 ovarian
K-562 leukemia = tested on: K-562 leukemia
KM12 colon = tested on: KM12 colon
LOX IMVI melanoma = tested on: LOX IMVI melanoma
M14 melanoma = tested on: M14 melanoma
MALME-3M melanoma = tested on: MALME-3M melanoma
MCF7 breast = tested on: MCF7 breast
MDA-MB-231 breast = tested on: MDA-MB-231 breast
MDA-MB-435 = tested on: MDA-MB-435
MOLT-4 leukemia = tested on: MOLT-4 leukemia
NCI-H226 lung = tested on: NCI-H226 lung
NCI-H23 lung = tested on: NCI-H23 lung
NCI-H460 lung = tested on: NCI-H460 lung
NCI-H522 lung = tested on: NCI-H522 lung
NCI/ADR-RES ovarian = tested on: NCI/ADR-RES ovarian
OVCAR-3 ovarian = tested on: OVCAR-3 ovarian
OVCAR-4 ovarian = tested on: OVCAR-4 ovarian
OVCAR-5 ovarian = tested on: OVCAR-5 ovarian
OVCAR-8 ovarian = tested on: OVCAR-8 ovarian
PC-3 prostate = tested on: PC-3 prostate
RPMI-8226 leukemia = tested on: RPMI-8226 leukemia
RXF 393 renal = tested on: RXF 393 renal
SF-268 CNS = tested on: SF-268 CNS
SF-295 CNS = tested on: SF-295 CNS
SF-539 CNS = tested on: SF-539 CNS
SK-MEL-2 melanoma = tested on: SK-MEL-2 melanoma
SK-MEL-28 melanoma = tested on: SK-MEL-28 melanoma
SK-MEL-5 melanoma = tested on: SK-MEL-5 melanoma
SK-OV-3 ovarian = tested on: SK-OV-3 ovarian
SN12C renal = tested on: SN12C renal
SNB-19 CNS = tested on: SNB-19 CNS
SNB-75 CNS = tested on: SNB-75 CNS
SR leukemia = tested on: SR leukemia
SW-620 colon = tested on: SW-620 colon
T-47D breast = tested on: T-47D breast
TK-10 renal = tested on: TK-10 renal
U251 CNS = tested on: U251 CNS
UACC-257 melanoma = tested on: UACC-257 melanoma
UACC-62 melanoma = tested on: UACC-62 melanoma
UO-31 renal = tested on: UO-31 renal

## Cc1nc2sc(C(=O)Nc3cccc4ccccc34)c(N)c2cc1C(=O)/C=C/c1ccccc1
786-0 renal
  GI50: 250 nM
  TGI: 979 nM
A498 renal
  GI50: 337 nM
  TGI: 1870 nM
A549 NSCLC
  GI50: 463 nM
  TGI: > 50 µM
ACHN renal
  GI50: 304 nM
  TGI: 1250 nM
BT-549 breast
  GI50: 413 nM
  TGI: 1920 nM
CAKI-1 renal
  GI50: 422 nM
  TGI: 1440 nM
CCRF-CEM leukemia
  GI50: 178 nM
  TGI: > 24.9 µM
COLO 205 colon
  GI50: 957 nM
  TGI: 2640 nM
DU-145 prostate
  GI50: 822 nM
  TGI: 3.6 µM
EKVX NSCLC
  GI50: 1140 nM
  TGI: > 36.7 µM
HCC-2998 colon
  GI50: 852 nM
  TGI: 1630 nM
HCT-116 colon
  GI50: 174 nM
  TGI: 631 nM
HCT-15 colon
  GI50: 185 nM
  TGI: 789 nM
HL-60(TB) leukemia
  GI50: 353 nM
  TGI: 1820 nM
HOP-62 NSCLC
  GI50: 311 nM
  TGI: 2710 nM
HOP-92 NSCLC
  GI50: 370 nM
  TGI: 8.97 µM
HS 578T breast
  GI50: 281 nM
  TGI: > 50 µM
HT29 colon
  GI50: 173 nM
  TGI: 1060 nM
IGROV1 ovarian
  GI50: 301 nM
  TGI: 1300 nM
K-562 leukemia
  GI50: 191 nM
  TGI: > 50 µM
KM12 colon
  GI50: 368 nM
  TGI: 1250 nM
LOX IMVI melanoma
  GI50: 183 nM
  TGI: 640 nM
M14 melanoma
  GI50: 181 nM
  TGI: 1680 nM
MALME-3M melanoma
  GI50: 343 nM
  TGI: > 34.9 µM
MCF7 breast
  GI50: 201 nM
  TGI: > 50 µM
MDA-MB-231 breast
  GI50: 709 nM
  TGI: 2610 nM
MDA-MB-435
  GI50: 116 nM
  TGI: 274 nM
MOLT-4 leukemia
  GI50: 251 nM
  TGI: > 28.4 µM
NCI-H226 lung
  GI50: 389 nM
  TGI: 1560 nM
NCI-H23 lung
  GI50: 862 nM
  TGI: 4.07 µM
NCI-H460 lung
  GI50: 411 nM
  TGI: 2340 nM
NCI-H522 lung
  GI50: 215 nM
  TGI: 2110 nM
NCI/ADR-RES ovarian
  GI50: 173 nM
  TGI: 593 nM
OVCAR-3 ovarian
  GI50: 181 nM
  TGI: 593 nM
OVCAR-4 ovarian
  GI50: 1020 nM
  TGI: > 15.7 µM
OVCAR-5 ovarian
  GI50: 813 nM
  TGI: 2610 nM
OVCAR-8 ovarian
  GI50: 534 nM
  TGI: > 13.4 µM
PC-3 prostate
  GI50: 282 nM
  TGI: 4.48 µM
RPMI-8226 leukemia
  GI50: 140 nM
  TGI: 500 nM
RXF 393 renal
  GI50: 203 nM
  TGI: 776 nM
SF-268 CNS
  GI50: 1150 nM
  TGI: > 32.4 µM
SF-295 CNS
  GI50: 514 nM
  TGI: 3.89 µM
SF-539 CNS
  GI50: 265 nM
  TGI: 1160 nM
SK-MEL-2 melanoma
  GI50: 501 nM
  TGI: > 39 µM
SK-MEL-28 melanoma
  GI50: 667 nM
  TGI: 5.91 µM
SK-MEL-5 melanoma
  GI50: 379 nM
  TGI: 1690 nM
SK-OV-3 ovarian
  GI50: 1350 nM
  TGI: > 50 µM
SN12C renal
  GI50: 415 nM
  TGI: 1880 nM
SNB-19 CNS
  GI50: 534 nM
  TGI: > 17 µM
SNB-75 CNS
  GI50: 232 nM
  TGI: > 10.4 µM
SR leukemia
  GI50: 164 nM
  TGI: > 10.1 µM
SW-620 colon
  GI50: 210 nM
  TGI: 1660 nM
T-47D breast
  GI50: 724 nM
  TGI: > 11 µM
TK-10 renal
  GI50: 1280 nM
  TGI: 8.88 µM
U251 CNS
  GI50: 236 nM
  TGI: 1010 nM
UACC-257 melanoma
  GI50: 5.09 µM
  TGI: > 30.3 µM
UACC-62 melanoma
  GI50: 235 nM
  TGI: 3.8 µM
UO-31 renal
  GI50: 351 nM
  TGI: 1030 nM
